≈ marks a conversion by molar mass, not a printed value. Like-named read-outs stand apart in the source and are kept apart here. Where a SMILES comes first, the peptide text is derived from it.
Tests used:
[1] = test system: E. coli, ATCC 25922; test: Gel-overlay antibacterial assay; type: cell-based, Escherichia coli; conditions: 10 μg peptide per lane, AU-PAGE gel overlaid with E. coli, 18 hr
[2] = test system: E. coli, ATTC 25922; test: Lawn-spotting antibacterial assay (E. coli); type: cell-based, Escherichia coli; conditions: 5 μl spotted, inactive segments up to 1 mg/ml
[3] = test system: S. typhimurium, KSU isolate 7; test: Lawn-spotting antibacterial assay (S. typhimurium); type: cell-based, Salmonella typhimurium; conditions: 5 μl spotted, inactive segments up to 1 mg/ml
[4] = test system: porcine neutrophils; test: Neutrophil chemotaxis, modified Boyden chamber; type: cell-based; conditions: peptide at 1 μM, 30 min
Procedure: Influence of PR-39 on neutrophil chemotaxis. Chemotaxis of porcine neutrophils was measured by the procedure of Salak et al. (1993). Briefly, PR-14, PR15, PR-16, PR-26, or PR-39 (30 μl in Dulbecco's Modified Eagle's medium) were placed in the bottom chamber of a modified Boyden chamber (Neuro Probe, Cabin John, Md.) and porcine neutrophils (50 μl at 5×10^6 cells/ml) were placed in the top chamber. The chambers were incubated at 37° C. for 30 min. Cells that migrated through the porous membrane (pore size 5 μm) were stained using LeukoStat solution and enumerated. Five microscope fields were counted and the cells that migrated through the membrane were standardized to the medium control and referred to as the migration index.

[5] = test system: whole-cell NADPH oxidase activity of porcine peripheral blood neutrophils; test: Whole-cell O2- production, ferricytochrome c reduction; type: cell-based; conditions: incubated 150 min. before PMA stimulation
Procedure: Regulation of neutrophil O2^− production by PR-26 and PR-39. • (i) O2^− production assays. Whole-cell O2^− production by por-cine peripheral blood neutrophils was determined by the superoxide dismutase-inhibitable reduction of ferricytochrome c as previously described (Shi et al., 1994a). Cell-free O2^− production was measured as previously described (Leto et al., 1991) using 96-well plates and a Molecular Devices Thermomax microplate reader (Menlo Park, Calif.). Reactions (100 μl) contained 10^6 cell equivalents of human neutrophil cytosol and 5×10^5 cell equivalents of deoxycholate-solubilized membranes prepared from human peripheral blood neutrophils. Reaction mixtures contained 50 mM potassium phosphate (pH 7), 0.2 mM acetylated cytochrome c, 4 mM MgCl2, 1 mM EGTA, 10 μM FAD, 1 μM GTP-γS, and 200 μM NADPH. The reactions were initiated by addition of 40 μM arachidonic acid. Control reactions contained 5 μg of superoxide dismutase. Superoxide anion generation was calculated based on superoxide dismutase-inhibitable changes in cytochrome c absorbance observed at 551 nm. The reactions were followed for 20 min. after addition of arachidonic acid, with absorbance readings taken at 1-min. intervals. Maximum rates of superoxide generation were calculated from a linear least squares fit of 10 consecutive 1-min. data points. Determinations were based on reactions performed in duplicate. • (ii) Binding assays. Neutrophils were disrupted by sonication, and unbroken cells, debris, and granules were removed by centrifuigation (13,000×g for 60 min.). Cytosol fractions were prepared by centrifugation (100,000 g for 45 min.) of the supernatants to remove residual membranes. Cytosolic proteins (15 μg in reducing buffer) were separated on a 7.5% SDS PAGE gel, transferred to PVDF membranes, and probed with biotinylated PR-39 (0.3 μM) for 2 hr. Binding between PR-39 and cytosolic proteins were visualized by a chemiluminescent streptavidin alkaline phosphatase system using an Epson scanner (Torrance, Calif.) and the NIH Image program. PR-39 was labeled with biotin hydrazide at the carboxy-terminus (Pierce Chemical Co., Rockford, Ill.) and purified by gel filtration chromatography.

[6] = molecular target: T1, cell-free NADPH oxidase (human neutrophil cytosol and membranes) (Homo sapiens, UniProt P14598); test: Cell-free O2- production assay; type: biochemical
T1 construct: 10^6 cell equivalents of human neutrophil cytosol; from tissue; host or cells: human peripheral blood neutrophils (cytosol and deoxycholate-solubilized membranes)
T1 sequence (P14598 1-390): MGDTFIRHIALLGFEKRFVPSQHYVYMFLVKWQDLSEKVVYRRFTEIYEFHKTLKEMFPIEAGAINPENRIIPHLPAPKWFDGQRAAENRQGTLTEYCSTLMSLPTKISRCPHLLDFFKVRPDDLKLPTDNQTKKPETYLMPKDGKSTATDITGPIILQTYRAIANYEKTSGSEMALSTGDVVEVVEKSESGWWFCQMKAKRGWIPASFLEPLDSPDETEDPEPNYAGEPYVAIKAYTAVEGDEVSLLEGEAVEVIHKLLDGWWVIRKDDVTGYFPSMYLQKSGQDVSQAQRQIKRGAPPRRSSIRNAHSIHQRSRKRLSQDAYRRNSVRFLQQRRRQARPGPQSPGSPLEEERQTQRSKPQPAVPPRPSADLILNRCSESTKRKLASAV
Procedure: Reactions (100 μl) contained 10^6 cell equivalents of human neutrophil cytosol and 5×10^5 cell equivalents of deoxycholate-solubilized membranes prepared from human peripheral blood neutrophils. […] Control reactions contained 5 μg of superoxide dismutase. Superoxide anion generation was calculated based on superoxide dismutase-inhibitable changes in cytochrome c absorbance observed at 551 nm. The reactions were followed for 20 min. after addition of arachidonic acid, with absorbance readings taken at 1-min. intervals. […] Determinations were based on reactions performed in duplicate. • (ii) Binding assays. Neutrophils were disrupted by sonication, and unbroken cells, debris, and granules were removed by centrifuigation (13,000×g for 60 min.). Cytosol fractions were prepared by centrifugation (100,000 g for 45 min.) of the supernatants to remove residual membranes. Cytosolic proteins (15 μg in reducing buffer) were separated on a 7.5% SDS PAGE gel, transferred to PVDF membranes, and probed with biotinylated PR-39 (0.3 μM) for 2 hr. Binding between PR-39 and cytosolic proteins were visualized by a chemiluminescent streptavidin alkaline phosphatase system using an Epson scanner (Torrance, Calif.) and the NIH Image program. PR-39 was labeled with biotin hydrazide at the carboxy-terminus (Pierce Chemical Co., Rockford, Ill.) and purified by gel filtration chromatography.

[7] = test system: Salmonella choleraesuis; type: cell-based
Procedure: (§1) Plates were incubated at 37° C. for 18 hr. […] Viable bacteria were counted. Tests were repeated on three different days. […] The results were expressed as the mean ± standard deviation. […] S. choleraesuis, ATCC 6962 was used in this experiment. […] Slides were stained with LeukoStat solutions (Fisher, Pittsburgh, Pa.). […] At least 200 neutrophils were examined. […] Tests were repeated on three different days. Results were expressed as the mean±standard deviation.

[8] = test system: Escherichia coli, 25922; test: MIC/MBC microdilution broth method; type: cell-based
Procedure: as §1

[9] = test system: Salmonella typhimurium; test: MIC/MBC microdilution broth method; type: cell-based; conditions: murium
Procedure: as §1

[10] = test system: Staphylococcus aureus; test: MIC/MBC microdilution broth method; type: cell-based
Procedure: as §1

[11] = test system: Streptococcus suis; test: MIC/MBC microdilution broth method; type: cell-based
Procedure: as §1

[12] = test system: S. typhimurium; test: Survival of mice after oral S. typhimurium challenge (first experiment); type: in vivo, A/J mice; conditions: 100 or 250 μg/mouse
Procedure: Effect of PR-26 on survival of mice challenged with S. typhimurium. Three separate S. typhimurium challenge studies were conducted with mice. In the first experiment, 45 A/J mice (Jackson Labs, Bar Harbor, Me.) were orally challenged with S. typhimurium. Feed was withdrawn 4 hrs. prior to an oral inoculation. Twenty min. prior to the inoculation with S. typhimurium mice were given a 30 μl dose of a 10% sodium bicarbonate solution in PBS. S. typhimurium, strain KSU007, was started in brain heart infusion broth overnight and then grown for 6 hrs. in Luria Broth Base (GIBCO, Gaithersburg, Md.). After centrifugation, bacteria were suspended in a 1% gelatin solution (final concentration 1.24×10^10 S. typhimurium/ml), and then 25 μl were given orally. Immediately following oral inoculation with S. typhimurium, mice were given 0, 100, or 250 μg of PR-26 in PBS. A second dose of PR-26 or PBS was given 4 hrs. later.

[13] = test system: Escherichia coli, K88
Procedure: Briefly, 50 μl of twofold serial dilutions (128 to 0.25 μM) of synthetic peptides were dispensed into wells of 96-well tissue culture plates. Bacteria (E. coli, ATCC 25922; E. coli, K88; S. typhimurium, fresh isolate from a dog; Salmonella choleraesuis ATCC 6962; Streptococcus suis, fresh isolate from porcine spleen; and Staphylococcus aureus) from sheep-blood or brain-heart-infusion agar plates were standardized to 0.5 McFarland in demineralized water using a radiometer/sensititre (Chelsea Instrument Ltd., England). The water/bacteria suspension (100 μl) was immediately transferred to 10 ml of cation-adjusted Muller-Hinton broth and 50 μl of the bacterial suspension then were added to each well of the microtiter plate. Plates were incubated for 20 hr. at 37° C. and MICs were determined. Ten microliters of bacterial suspensions in Muller-Hinton broth also were diluted to determine the actual bacterial concentration using standard colony forming unit (CFU) counting. After determination of the MICs, 10 μl of each bacteria-peptide suspension were plated on sheep-blood or brain-heart-infusion agar plates and incubated for 24 hr. at 37° C. to determine the MBCs. MBC was considered that peptide concentration that inhibited 99.9% of the original CFUs (NCCLS, 1990). • (iv) PAE.

[14] = cell-free assay, read-out: IC50 of O2- generation

Row | Molecule | antibacterial activity (clear zones on overlaid gel) [1] | antibacterial activity (clear zone on bacterial lawn) [2] | antibacterial activity (clear zone on bacterial lawn) [3] | neutrophil chemotaxis (migration index) [4] | O2- generation by intact neutrophils [5] | effect on O2- generation ([6]; cell-free assay) | IC50 [6, 14] [µM] | other results
1 | PR-16: central segment 11 to 26 of PR-39; Sequence ID No. 5 (RPRPPPFFPPRLPPRI) | only PR-26 and PR-39 were found to have antibacterial activity | no antibacterial activity | no antibacterial activity | chemotactic agents | did not significantly reduce | did not affect |  | 
2 | PR-15: COOH-terminal segment 25 to 39 of PR-39; Sequence ID No. 6 (RIPPGFPPRFPPRFP) | only PR-26 and PR-39 were found to have antibacterial activity | no antibacterial activity | no antibacterial activity | chemotactic agents | did not significantly reduce | did not affect |  | 
3 | CC(C)C[C@H](NC(=O)[C@H](Cc1ccc(O)cc1)NC(=O)[C@@H]1CCCN1C(=O)[C@@H]1CCCN1C(=O)[C@H](CCCNC(=N)N)NC(=O)[C@@H]1CCCN1C(=O)[C@H](CCCNC(=N)N)NC(=O)[C@H](CCCNC(=N)N)NC(=O)[C@@H](N)CCCNC(=N)N)C(=O)N1CCC[C@H]1C(=O)N[C@@H](CCCNC(=N)N)C(=O)N1CCC[C@H]1C(=O)N[C@@H](CCCNC(=N)N)C(=O)N1CCC[C@H]1C(=O)N1CCC[C@H]1C(=O)N1CCC[C@H]1C(=O)N[C@@H](Cc1ccccc1)C(=O)N[C@@H](Cc1ccccc1)C(=O)N1CCC[C@H]1C(=O)O [PR-19] (H-RRRPRPPYLPRPRPPPFFP-OH) |  |  |  |  |  |  | ~5 | 
4 | CC[C@H](C)[C@H](NC(=O)[C@H](CCCNC(=N)N)NC(=O)[C@@H]1CCCN1C(=O)[C@@H]1CCCN1C(=O)[C@H](CC(C)C)NC(=O)[C@H](CCCNC(=N)N)NC(=O)[C@@H]1CCCN1C(=O)[C@@H]1CCCN1C(=O)[C@H](Cc1ccccc1)NC(=O)[C@H](Cc1ccccc1)NC(=O)[C@@H]1CCCN1C(=O)[C@@H]1CCCN1C(=O)[C@@H]1CCCN1C(=O)[C@H](CCCNC(=N)N)NC(=O)[C@@H]1CCCN1C(=O)[C@H](CCCNC(=N)N)NC(=O)[C@@H]1CCCN1C(=O)[C@H](CC(C)C)NC(=O)[C@H](Cc1ccc(O)cc1)NC(=O)[C@@H]1CCCN1C(=O)[C@@H]1CCCN1C(=O)[C@H](CCCNC(=N)N)NC(=O)[C@@H]1CCCN1C(=O)[C@H](CCCNC(=N)N)NC(=O)[C@H](CCCNC(=N)N)NC(=O)[C@@H](N)CCCNC(=N)N)C(=O)O [PR-26] (H-RRRPRPPYLPRPRPPPFFPPRLPPRI-OH) |  |  |  |  |  |  |  | MBC [7]: 2 µM (≈ 6.46 µg/mL); MIC [7]: 1 µM (≈ 3.23 µg/mL); MBC [8]: 8 µM (≈ 25.8 µg/mL); MIC [8]: 2 µM (≈ 6.46 µg/mL); MBC [9]: 2 µM (≈ 6.46 µg/mL); MIC [9]: 2 µM (≈ 6.46 µg/mL); MIC [10]: >250 µM; MBC [11]: >64 µM; MIC [11]: 16 µM (≈ 51.7 µg/mL); toxicity in mice [12]: no evidence of toxicity; IC50 [6]: ~1 µM; MBC [13]: 4 µM (≈ 12.9 µg/mL); MIC [13]: 1 µM (≈ 3.23 µg/mL)
5 | CC[C@H](C)[C@H](NC(=O)[C@H](CCCNC(=N)N)NC(=O)[C@@H]1CCCN1C(=O)[C@@H]1CCCN1C(=O)[C@H](CC(C)C)NC(=O)[C@H](CCCNC(=N)N)NC(=O)[C@@H]1CCCN1C(=O)[C@@H]1CCCN1C(=O)[C@H](Cc1ccccc1)NC(=O)[C@H](Cc1ccccc1)NC(=O)[C@@H]1CCCN1C(=O)[C@@H]1CCCN1C(=O)[C@@H]1CCCN1C(=O)[C@H](CCCNC(=N)N)NC(=O)[C@@H]1CCCN1C(=O)[C@H](CCCNC(=N)N)NC(=O)[C@@H]1CCCN1C(=O)[C@H](CC(C)C)NC(=O)[C@H](Cc1ccc(O)cc1)NC(=O)[C@@H]1CCCN1C(=O)[C@@H]1CCCN1C(=O)[C@H](CCCNC(=N)N)NC(=O)[C@@H]1CCCN1)C(=O)O [PR-23] (H-PRPPYLPRPRPPPFFPPRLPPRI-OH) |  |  |  |  |  |  | ~25 | 
6 | PR-14: NH2-terminal segment 1 to 14 of PR-39; Sequence ID No. 7 (RRRPRPPYLPRPRP) | only PR-26 and PR-39 were found to have antibacterial activity | no antibacterial activity | no antibacterial activity | chemotactic agents | did not significantly reduce |  |  | concentrations at which O2- generation was reduced ([6]; cell-free assay): greater than 25 μM

Reference: patent publication US7049396B2, “Synthetic peptides that inhibit leukocyte superoxide anion production and/or attract leukocytes” (priority 1995, dated 2006)
